Laboratory results reported in PubChem BioAssay AID248 (DTP/NCI, 2004).
Inconclusive results and toxic doses are left out. Rule as the data show it: active = T/C of 150% or more; inactive = T/C below 125%.

Tested on: L1210 leukemia ip in BDF1 mice, survival T/C
Assay: NCI In Vivo Anticancer Drug Screen. Data for tumor model L1210 Leukemia (intraperitoneal) in B6D2F1 (BDF1) mice
Settings: endpoint: mean survival time, higher = longer survival
How it was run: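 Read-out is survival time, reported as the treated-group measurement over the vehicle-control measurement.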

[1] = dose: 100.0 mg/kg/injection, schedule: Q01DX009 (ip), vehicle: saline
[2] = dose: 100.0 mg/kg/injection, schedule: Q04DX003 (ip), vehicle: saline
[3] = dose: 200.0 mg/kg/injection, schedule: Q01DX009 (ip), vehicle: saline
[4] = dose: 200.0 mg/kg/injection, schedule: Q04DX003 (ip), vehicle: saline
[5] = dose: 400.0 mg/kg/injection, schedule: Q04DX003 (ip), vehicle: saline
[6] = dose: 100.0 mg/kg/injection, schedule: Q01DX001 (ip), vehicle: carboxymethylcellulose (CMC)
[7] = dose: 200.0 mg/kg/injection, schedule: Q01DX001 (ip), vehicle: carboxymethylcellulose (CMC)
[8] = dose: 400.0 mg/kg/injection, schedule: Q01DX001 (ip), vehicle: carboxymethylcellulose (CMC)
[9] = dose: 100.0 mg/kg/injection, schedule: Q04DX002 (ip), vehicle: saline with Tween-80
[10] = dose: 200.0 mg/kg/injection, schedule: Q04DX002 (ip), vehicle: saline with Tween-80
[11] = dose: 400.0 mg/kg/injection, schedule: Q04DX002 (ip), vehicle: saline with Tween-80
[12] = dose: 100.0 mg/kg/injection, schedule: Q04DX003 (ip), vehicle: saline with Tween-80
[13] = dose: 200.0 mg/kg/injection, schedule: Q04DX003 (ip), vehicle: saline with Tween-80
[14] = dose: 100.0 mg/kg/injection, schedule: Q04DX003 (ip), vehicle: Klucel (hydroxypropylcellulose) (HPC)
[15] = dose: 200.0 mg/kg/injection, schedule: Q04DX003 (ip), vehicle: Klucel (hydroxypropylcellulose) (HPC)
[16] = dose: 400.0 mg/kg/injection, schedule: Q04DX003 (ip), vehicle: Klucel (hydroxypropylcellulose) (HPC)
[17] = dose: 100.0 mg/kg/injection, schedule: Q04DX002 (ip), vehicle: Klucel (hydroxypropylcellulose) (HPC)
[18] = dose: 200.0 mg/kg/injection, schedule: Q04DX002 (ip), vehicle: Klucel (hydroxypropylcellulose) (HPC)
[19] = dose: 400.0 mg/kg/injection, schedule: Q04DX002 (ip), vehicle: Klucel (hydroxypropylcellulose) (HPC)

Measured: T/C

CC1(C)N=C(N)N=C(N)N1c1cccc(Cl)c1
inactive: dose: 1.15 mg/kg/injection, schedule: Q01DX Z (ip), vehicle: carboxymethylcellulose (CMC) 98 % of control | dose: 2.3 mg/kg/injection, schedule: Q01DX Z (ip), vehicle: carboxymethylcellulose (CMC) 97 % of control | dose: 2.5 mg/kg/injection, schedule: Q01DX015 (ip), vehicle: saline 111 % of control | dose: 4.6 mg/kg/injection, schedule: Q01DX Z (ip), vehicle: carboxymethylcellulose (CMC) 117 % of control | dose: 5.0 mg/kg/injection, schedule: Q01DX015 (ip), vehicle: saline 114 % of control | dose: 9.2 mg/kg/injection, schedule: Q01DX Z (ip), vehicle: carboxymethylcellulose (CMC) 108 % of control | dose: 10.0 mg/kg/injection, schedule: Q01DX015 (ip), vehicle: saline 119 % of control | dose: 40.0 mg/kg/injection, schedule: Q01DX015 (ip), vehicle: saline 114 % of control | dose: 75.0 mg/kg/injection, schedule: Q01DX001 (ip), vehicle: acetone 111 % of control

CC(C)C(C(=O)O)C(=O)O
inactive: dose: 100.0 mg/kg/injection, schedule: Q01DX001 (ip), vehicle: saline 102 % of control | dose: 200.0 mg/kg/injection, schedule: Q01DX001 (ip), vehicle: saline 104 % of control | dose: 400.0 mg/kg/injection, schedule: Q01DX001 (ip), vehicle: saline 112 % of control

CC(=O)Nc1cccc(OC(=O)Nc2ccc([N+](=O)[O-])cc2Cl)c1
inactive: [1] 98 % of control | [2] 97 % of control | [3] 98 % of control | [4] 107 % of control | dose: 400.0 mg/kg/injection, schedule: Q01DX009 (ip), vehicle: saline 102 % of control | [5] 105 % of control

BrC1CC2CCCCC2CC1Br (stereo not drawn)
inactive: [6] 98 % of control | [7] 101 % of control | [8] 101 % of control

C=C(NC(=O)C(NC(=O)C(CCCCN)NC(=O)C1CSC(C)C2NC(=O)C(CC(C)C)NC(=O)C(NC(=O)C(CCC(N)=O)NC(=O)C(CC(C)C)NC(=O)C(Cc3ccccc3)NC(=O)C3CSC(C)C(NC(=O)C(NC(=O)C4CSC(C)C(NC(=O)C5CSCC(NC(=O)C(CCCCN)NC(=O)C(N)Cc6c[nH]c7ccccc67)C(=O)NC(CCC(=O)O)C(=O)NC(=C)C(=O)NC(CC(C)C)C(=O)N5)C(=O)N5CCCC5C(=O)NCC(=O)N4)C(C)C)C(=O)NCC(=O)NC(C)C(=O)NC(CC(C)C)C(=O)NC(CCC(N)=O)C(=O)N/C(=C/C)C(=O)N3)C(C)SCC(NC2=O)C(=O)NC(CC(N)=O)C(=O)N1)C(C)CC)C(=O)NC(CCCCN)C(=O)O (stereo not drawn)
inactive: [9] 108 % of control | [10] 94 % of control | [11] 92 % of control

O=C(O)C1CCCCC1C(=O)Nc1ccc(Cl)cc1 (stereo not drawn)
inactive: dose: 50.0 mg/kg/injection, schedule: Q01DX009 (ip), vehicle: saline with Tween-80 88 % of control | dose: 100.0 mg/kg/injection, schedule: Q01DX009 (ip), vehicle: saline with Tween-80 87 % of control | [12] 96 % of control | dose: 200.0 mg/kg/injection, schedule: Q01DX009 (ip), vehicle: saline with Tween-80 98 % of control | [13] 97 % of control

Nc1ccc(CC(=O)O)cc1
inactive: dose: 100.0 mg/kg/injection, schedule: Q01DX001 (ip), vehicle: Klucel (hydroxypropylcellulose) (HPC) 97 % of control | dose: 200.0 mg/kg/injection, schedule: Q01DX001 (ip), vehicle: Klucel (hydroxypropylcellulose) (HPC) 101 % of control | dose: 400.0 mg/kg/injection, schedule: Q01DX001 (ip), vehicle: Klucel (hydroxypropylcellulose) (HPC) 88 % of control

CSc1cccc(NC2=NCCO2)c1
inactive: dose: 50.0 mg/kg/injection, schedule: Q04DX002 (ip), vehicle: saline with Tween-80 103 % of control | [9] 98 % of control | [10] 88 % of control | [11] 95 % of control

CCC[N+](CCC)(CCC)Cc1ccccc1
inactive: dose: 5.0 mg/kg/injection, schedule: Q01DX001 (ip), vehicle: saline 108 % of control | dose: 10.0 mg/kg/injection, schedule: Q01DX001 (ip), vehicle: saline 98 % of control | dose: 20.0 mg/kg/injection, schedule: Q01DX001 (ip), vehicle: saline 96 % of control

CC(C)(SCCc1ccc([N+](=O)[O-])cc1)C(N)C(=O)O (stereo not drawn)
inactive: dose: 12.0 mg/kg/injection, schedule: Q01DX009 (ip), vehicle: Klucel (hydroxypropylcellulose) (HPC) 93 % of control | dose: 12.5 mg/kg/injection, schedule: Q04DX003 (ip), vehicle: Klucel (hydroxypropylcellulose) (HPC) 91 % of control | dose: 25.0 mg/kg/injection, schedule: Q01DX009 (ip), vehicle: Klucel (hydroxypropylcellulose) (HPC) 104 % of control | dose: 25.0 mg/kg/injection, schedule: Q04DX003 (ip), vehicle: Klucel (hydroxypropylcellulose) (HPC) 91 % of control | dose: 50.0 mg/kg/injection, schedule: Q01DX009 (ip), vehicle: Klucel (hydroxypropylcellulose) (HPC) 103 % of control | dose: 50.0 mg/kg/injection, schedule: Q04DX003 (ip), vehicle: Klucel (hydroxypropylcellulose) (HPC) 93 % of control

COc1cc(Nc2ccc(O)c(CN3CCCCC3)c2)c2ncccc2c1
inactive: dose: 75.0 mg/kg/injection, schedule: Q01DX001 (ip), vehicle: other 98 % of control | dose: 150.0 mg/kg/injection, schedule: Q01DX001 (ip), vehicle: other 98 % of control | dose: 300.0 mg/kg/injection, schedule: Q01DX001 (ip), vehicle: other 91 % of control

Nc1nc2c(c(-c3ccccc3)n1)CN(c1ccc(Br)cc1)C2=O
inactive: dose: 50.0 mg/kg/injection, schedule: Q01DX009 (ip), vehicle: saline 95 % of control | [1] 92 % of control | [2] 90 % of control | [3] 92 % of control | [4] 95 % of control | [5] 90 % of control

CCCCCCCCCCCCCCCCCCNC(=S)N(C)C
inactive: [14] 89 % of control | [15] 86 % of control | [16] 89 % of control

COc1ccccc1NC(=O)N(Cc1ccccc1)C(C)(C)C
inactive: [17] 95 % of control | [18] 100 % of control | [19] 88 % of control

C=CCC(O)CCCCC (stereo not drawn)
inactive: dose: 50.0 mg/kg/injection, schedule: Q01DX001 (ip), vehicle: carboxymethylcellulose (CMC) 101 % of control | [6] 92 % of control | [7] 97 % of control | [8] 106 % of control

O=C1c2cc(Br)ccc2-c2cc(Br)c(NC(=O)C(F)(F)F)c(Br)c21
inactive: [6] 92 % of control | [7] 108 % of control | [8] 99 % of control

O=C(O)/C=C\C(=O)Nc1ccccc1[N+](=O)[O-]
inactive: [17] 90 % of control | [18] 114 % of control | [19] 104 % of control

CC(C)OC(=O)NCc1cccs1
inactive: dose: 100.0 mg/kg/injection, schedule: Q01DX009 (ip), vehicle: carboxymethylcellulose (CMC) 104 % of control | dose: 200.0 mg/kg/injection, schedule: Q01DX009 (ip), vehicle: carboxymethylcellulose (CMC) 101 % of control | dose: 400.0 mg/kg/injection, schedule: Q01DX009 (ip), vehicle: carboxymethylcellulose (CMC) 104 % of control

CCCCCCCCCCOc1ccc2ccccc2c1
inactive: [12] 100 % of control | [13] 94 % of control | dose: 400.0 mg/kg/injection, schedule: Q04DX003 (ip), vehicle: saline with Tween-80 91 % of control

CN(C)S(=O)(=O)c1ccc(C=C(c2ccccc2)c2ccccc2)cc1
inactive: [14] 95 % of control | [15] 94 % of control | [16] 91 % of control

O=P(NCCCl)(NCCCl)c1ccccc1
inactive: [17] 118 % of control | [18] 100 % of control | [19] 96 % of control

COc1ccc(C=O)cc1OCc1ccccc1
inactive: dose: 100.0 mg/kg/injection, schedule: Q01DX009 (ip), vehicle: water 96 % of control | dose: 100.0 mg/kg/injection, schedule: Q04DX003 (ip), vehicle: water 100 % of control | dose: 200.0 mg/kg/injection, schedule: Q01DX009 (ip), vehicle: water 96 % of control | dose: 200.0 mg/kg/injection, schedule: Q04DX003 (ip), vehicle: water 96 % of control | dose: 400.0 mg/kg/injection, schedule: Q01DX009 (ip), vehicle: water 102 % of control | dose: 400.0 mg/kg/injection, schedule: Q04DX003 (ip), vehicle: water 100 % of control
